Two compounds from patent US20130065959A1, “SANITIZING MEAT WITH PERACID AND 2-HYDROXY ORGANIC ACID COMPOSITIONS” (Fresh Express Incorporated, priority 2009, published 2013) can be followed below.

What all share (type): cell-based
Assay [1] concerns Pseudomonas aeruginosa (ATCC 9027). The experiment in a line: Attached cells on non-food surface coupons (Example 6). To be noted: 90 sec. The procedure: Inoculum preparation: Pseudomonas aeruginosa (ATCC 9027) freeze dried culture was rehydrated in 10 mL of sterilized nutrient broth (NB) and mixed homogeneously. 0.1 mL of the stock solution was transferred to 10 mL of NB and incubated at 37C for 24 h. Enrichment was streaked to confirm purity. 10 mL of the enriched stock was transferred to 1,000 mL of NB and incubated at 37C for 24 h resulting in ˜10^8 cfu/mL stationary phase culture stock. The stock was cooled at 4C for 1 h. Microbial population of the stationary phase stock culture was enumerated by means of serial dilution with 9-mL Butterfield phosphate buffer tubes and spread plating on Nutrient Agar […] pre-poured agar plates.
Non-food surface inoculation: The 1000 mL˜10^8 cfu/mL stock culture solution was homogeneously mixed by shaking and swirling the Erlenmeyer flask. The 1000 mL culture was separated into 20 centrifuge tubes (50 mL each) and centrifuged at 10,000 rpm and 4C for 15 min. The stock culture pellet was re-suspended with 50 mL of NB. All the re-suspended cultures from the 20 centrifuge tubes were combined to form 1,000 mL˜10^8 cfu/mL inoculating stock culture. 15 mL of the P. aeruginosa inoculating stock together with a non-food surface coupon (2.5 cm×5 cm) were placed in a sterilized 50mL-centrifuge tube and incubated for 24 h at 37C. After 24 hr, the coupon was transferred to a sterile Petri dish and placed in an oven to dry for 1 hour at 35C. The coupons were cut from stainless steel sheet, wood, glass slide, and plastic sheet.
Treatment of inoculated non-food surfaces: 1 mL of test solution was dispensed onto a 2.5cm×2.5 cm marked area of each inoculated coupon for 60 s. A pre-wet sterilized cotton swab was dipped in 10 mL Butterfield phosphate buffer with sodium thiosulfate and swabbed the marked area on the coupon after 60 s exposure. The swabbed was then immediately placed into the 10 mL Butterfield phosphate buffer with sodium thiosulfate and mixed. One mL was immediately transferred from the aforementioned tube to a 9 mL Butterfield phosphate buffer. The total treatment time including the exposure time, the swabbing time, and the transfer time was 90 s. Each solution treatment was performed in duplications. The reduction for each solution treatment was compared to that of the city water treatment.

Assay [2] relates to Listeria innocua ATCC 33090. The experiment in a line: Suspended Cells Challenge Test, 20 s residence time, no surfactant (Example 2). The procedure:
(§1) Synergism with respect to efficacy in a Suspended Cells Challenge Test at 20 s residence time with no surfactant.
(§2) The experimental treatment groups were tap water, chlorinated water, a FE sanitizer wash water (FE, FE sanitizer, a solution of peroxyacetic acid and lactic acid, as further specified in a given experiment).
(§3) The experimental protocol was as follows: • 1. Transfer 1.00 mL of a ˜10^8 cfu/g Lactobacillus plantarum (ATCC 14917) stock culture into a test tube containing 9.00 mL of treatment test solution • 2. Vortex the mixture for 15 s • 3. Stop the reaction by transferring 1 mL of the treated samples to 9 mL of Butterfield Phosphate Buffer • 4. Enumerate viable residual cells through serial dilutions and spread plating with 1-mL transfers • 5. […] Repeat Steps 1 to 5 two more times • 7. Repeat Steps 1 to 6 with flume water • 8. Repeat Steps 1 to 6 with chlorinated water • 9. Repeat Steps 1 to 8 with various levels of FE • 10. Repeat Steps 1 to 8 with various levels of lactic acid • 11. Repeat Steps 1 to 8 with various levels of peroxyacetic acid • 12. Repeat Steps 1 to 11 with Listeria innocua (ATCC33090)
(§4) • 1. Log […] is a measure of the percent of microorganisms that are inactivated during the disinfection process and is defined as Log Inactivation=Log10 (No/NT) where No is the initial influent concentration of viable microorganisms; NT is the concentration of surviving microorganisms. As M cfu/g=microbial population of stock culture; W cfu/g=microbial population in solution of “Water Treatment” and X cfu/g=microbial population in solution of “X Treatment,” the Log reduction caused by “Treatment X”=Log (w/x)

The test system of assay [3] is Lactobacillus plantarum 14917. The description is as above. The procedure:
as §1, §2, §3, §4

Where [4] appears, read: Peroxyacetic acid 0 ppm, Lactic Acid 2000 ppm.
The mark [5] stands for this setting: Peroxyacetic acid 0 ppm, Lactic Acid 2500 ppm.
Where [6] appears, read: Peroxyacetic acid 0 ppm, Lactic Acid 3000 ppm.
Where [7] appears, read: Peroxyacetic acid 70 ppm, Lactic Acid 0 ppm.
Setting [8] is: Peroxyacetic acid 75 ppm, Lactic Acid 0 ppm.
Where [9] appears, read: Peroxyacetic acid 80 ppm, Lactic Acid 0 ppm.

Molecules are shown by their SMILES.

Take `CC(O)C(=O)O` (stereo not shown) [Lactic Acid, lactic acid]: the Log reductions in assay [1] (Glass coupon, PA 0 ppm, LA 1,250 ppm) is 0.4; in assay [1] (Glass coupon, PA 0 ppm, LA 2,500 ppm), 1.7; in assay [1] (Plastic coupon, PA 0 ppm, LA 2,500 ppm) it was 0.6; in assay [1] (Plastic coupon, PA 0 ppm, LA 5,000 ppm), 1.2; in assay [1] (Stainless steel coupon, PA 0 ppm, LA 1,250 ppm), 1.6; in assay [1] (Stainless steel coupon, PA 0 ppm, LA 2,500 ppm) it was 1.9. Moreover, the Log reductions in assay [1] (Wood coupon, PA 0 ppm, LA 2,500 ppm) stood at 1.4; in assay [1] (Wood coupon, PA 0 ppm, LA 7,500 ppm), 3.6. Further, the “log reduction of suspended cells” value in assay [2] (setting [4]) came to 0.08 log10; in assay [2] (setting [5]), 0.19 log10; in assay [2] (setting [6]), 0.05 log10; in assay [3] (setting [4]) it was 0.00 log10; in assay [3] (setting [5]) it was 0.02 log10; in assay [3] (setting [6]), 0.01 log10.
Consider `CC(=O)OO` [Peroxyacetic acid, peroxyacetic acid], for which the Log reductions came to 0.2 in assay [1] (Glass coupon, PA 60 ppm, LA 0 ppm); 0.0 in assay [1] (Glass coupon, PA 80 ppm, LA 0 ppm); 1.2 in assay [1] (Plastic coupon, PA 60 ppm, LA 0 ppm); 0.9 in assay [1] (Plastic coupon, PA 80 ppm, LA 0 ppm); 1.5 in assay [1] (Stainless steel coupon, PA 60 ppm, LA 0 ppm); 1.4 in assay [1] (Stainless steel coupon, PA 100 ppm, LA 0 ppm). Further, the Log reductions in assay [1] (Wood coupon, PA 100 ppm, LA 0 ppm) is on record as 1.0; in assay [1] (Wood coupon, PA 140 ppm, LA 0 ppm), 0.8. Also, the “log reduction of suspended cells” value in assay [2] (setting [7]) is 1.40 log10; in assay [2] (setting [8]) it was 1.70 log10; in assay [2] (setting [9]), 1.80 log10; in assay [3] (setting [7]), 4.52 log10; in assay [3] (setting [8]) it was 5.59 log10; in assay [3] (setting [9]), 5.59 log10.
